Laboratory results from patent US20070003671A1, “Two-part calcium fortified compositions and methods of making the same” (priority 2005, published 2007).

Legend:
Type in all cases: physicochemical
[1] = Calcium salts, physical/chemical attributes in orange juice, 350 mg/100 mL calcium load; conditions: for Brix/Acid Ratio: unfortified juice 18.3
Source text: (§1) The flavor of orange juice, for example, can be characterized by a unique balance of sweetness resulting from the sugar content and tartness resulting from the acid content. A challenge of fortifying orange juice with nutritionally significant amounts of calcium is maintaining the sweet to tart balance. This balance can be expressed analytically as the Brix to acid ratio, as described above. The Brix component of the ratio is the measure of soluble solids in the composition often determined by a refractometer. The acid component can be determined by titration with a base such as sodium hydroxide. The Brix to acid ratio is an analytical representation or measure of the sweet to tart taste balance.
A variety of calcium salts, i.e., calcium components, were again evaluated to determine their effects on the Brix-acid ratio but this time at 350 mg/100 mL calcium load.

[2] = Calcium salts, physical/chemical attributes in orange juice, 450 mg/100 mL calcium load; conditions: for Brix/Acid Ratio: unfortified juice 18.3
Source text: as §1
A variety of calcium salts, i.e., calcium components, were evaluated to determine their effects on the Brix-acid ratio. In this evaluation, orange juices fortified with different calcium salts were prepared at 450 mg/100 mL of calcium load.

[3] = pH of a 20% slurry in water
Source text: Titratable acidity and pH can be used as measures of sour perception in, e.g., beverage applications. It is well known that acidity provides a flavor lift or increased perception of flavor in a beverage.

| Molecule | Brix (48 hrs) [1] | Calcium in Juice (48 hrs) [1] [mg/100 mL] | Titratable Acidity (%) (48 hrs) [1] | pH (48 hrs) [1] | Brix/Acid Ratio [1] | Brix (48 Hours) [2] | Calcium - Juice (48 Hours) [2] [mg/100 mL] | Titratable Acidity (%) (48 Hours) [2] | pH (48 Hours) [2] | Brix/Acid Ratio [2] | pH of slurry [3] |
| --- | --- | --- | --- | --- | --- | --- | --- | --- | --- | --- | --- |
| N[C@@H](CCC(=O)[O-])C(=O)[O-].O.O.O.O.[Ca+2] [calcium L-glutamate tetrahydrate] | 13.41 | 161 | 0.621 | 4.42 | 21.6 | 13.81 | 207 | 0.627 | 4.47 | 22.0 | – |
| O.O.O=C([O-])[C@H](O)[C@@H](O)C(=O)[O-].[Ca+2] [calcium L-tartrate dihydrate] | 11.99 | 113 | 0.574 | 4.17 | 20.9 | 12.02 | 140 | 0.545 | 4.23 | 22.1 | – |
| O=C([O-])[O-].[Ca+2] [calcium carbonate] | 12.35 | 158 | 0.188 | 5.15 | 65.7 | 12.44 | 200 | 0.099 | 5.88 | 125.7 | – |
| O.O.[Ca+2].[Cl-].[Cl-] [calcium chloride dihydrate] | 12.54 | 163 | 0.618 | 3.88 | 20.3 | 12.70 | 206 | 0.620 | 3.84 | 20.5 | – |
| O=C[O-].O=C[O-].[Ca+2] [calcium formate] | 12.45 | 160 | 0.620 | 4.18 | 20.1 | 12.59 | 206 | 0.620 | 4.20 | 20.3 | – |
| O.O.O.O=C([O-])/C=C/C(=O)[O-].[Ca+2] [calcium fumarate trihydrate] | 13.56 | 158 | 0.643 | 3.99 | 21.1 | 12.96 | 202 | 0.659 | 4.01 | 19.7 | – |
| O.O=P([O-])([O-])OCC(O)CO.[Ca+2] (stereo not drawn) [calcium glycerophosphate monohydrate] | 12.54 | 145 | 0.602 | 4.42 | 20.8 | 12.73 | 187 | 0.598 | 4.50 | 21.3 | – |
| CC(O)C(=O)[O-].CC(O)C(=O)[O-].O.O.O.O.O.[Ca+2] (stereo not drawn) [calcium lactate pentahydrate] | 12.80 | 157 | 0.670 | 4.01 | 19.1 | 13.01 | 204 | 0.657 | 4.03 | 19.8 | – |
| O=C([O-])CC(O)C(=O)[O-].[Ca+2] (stereo not drawn) [calcium malate] | 12.54 | 166 | 0.635 | 4.15 | 19.7 | 12.80 | 213 | 0.641 | 4.17 | 20.0 | – |
| O.O=C([O-])CCC(=O)[O-].[Ca+2] [calcium succinate monohydrate] | 12.64 | 161 | 0.606 | 4.56 | 20.9 | 12.85 | 206 | 0.607 | 4.66 | 21.2 | – |
| O=P([O-])([O-])O.[Ca+2] [dicalcium phosphate anhydrous] | 11.97 | 156 | 0.677 | 4.04 | 17.6 | 12.04 | 203 | 0.674 | 4.04 | 17.8 | approximately 5.0 |
| O.O.O=P([O-])([O-])O.[Ca+2] [dicalcium phosphate dihydrate] | 12.33 | 141 | 0.667 | 4.17 | 18.5 | 12.26 | 181 | 0.682 | 4.21 | 18.0 | 7.4 |
| O.O=P([O-])(O)O.O=P([O-])(O)O.[Ca+2] [monocalcium phosphate monohydrate] | 12.53 | 164 | 1.083 | 3.76 | 11.6 | 12.92 | 207 | 1.238 | 3.69 | 10.4 | – |
| O=C([O-])CC(O)(CC(=O)[O-])C(=O)[O-].O=C([O-])CC(O)(CC(=O)[O-])C(=O)[O-].[Ca+2].[Ca+2].[Ca+2] [tri-calcium citrate] | 12.37 | 140 | 0.640 | 4.06 | 19.3 | 12.08 | 177 | 0.630 | 4.07 | 19.2 | – |
| O=P([O-])([O-])[O-].O=P([O-])([O-])[O-].[Ca+2].[Ca+2].[Ca+2] [tricalcium phosphate (fine), tricalcium phosphate] | 12.27 | 157 | 0.490 | 4.49 | 25.0 | 12.30 | 197 | 0.484 | 4.51 | 25.4 | – |
| O=P([O-])([O-])[O-].O=P([O-])([O-])[O-].[Ca+2].[Ca+2].[Ca+2] [tricalcium phosphate] | 12.39 | 147 | 0.530 | 4.34 | 23.4 | 12.40 | 182 | 0.561 | 4.37 | 22.1 | – |
| calcium ascorbate dihydrate | 13.41 | 160 | 0.618 | 4.16 | 21.7 | 13.99 | 195 | 0.648 | 4.23 | 21.6 | – |
| calcium aspartate | 13.11 | 159 | 0.617 | 4.24 | 21.2 | 13.42 | 187 | 0.610 | 4.28 | 22.0 | – |
| calcium gluconate monohydrate | 13.56 | 154 | 0.640 | 3.99 | 21.2 | 13.91 | 198 | 0.653 | 4.00 | 21.3 | – |
